Test results published in patent US20090005443A1, “Treatment of Depression” (priority 2007, published 2009).
Several values for one entry are separate records, joined by “and”; a condition that tells them apart may be missing. Equal values may be shown once.

Tested on: Patients with MDD
Type: in vivo
Conditions: for Ham-D change: baseline to end value, oral tablets, no visit qualifier given; for Ham-D change / Ham-D change (by penultimate visit): individual MDD patient; for Ham-D change (by penultimate visit): baseline to value by penultimate visit; for Reduction in patient depression, measured using the Hamilton-D rating scale: the five patients who completed the trial protocol (three tramadol, two amitriptyline)
Protocol: A Single Centre, Open Labelled, Comparative, Parallel Pilot Study to Evaluate the Antidepressant Activity of Tramadol in the Treatment of Major Depressive Disorder (MDD).
The investigational drug was administered in tablet form orally, with an initial dose of 200 mg daily for 2 weeks and then maintenance at 200-400 mg daily for a further 14 weeks.
Patients with MDD aged between 18 to 65 years old.
To evaluate the antidepressant activity of tramadol by comparing the change in Ham-D scores of patients with MDD when treated with tramadol as compared with amitriptyline.
Remission is defined as ≦7 on the 17 item Ham-D scale upon completion of week 8 of trial. Response is defined as ≧50% decrease from baseline depression on 17 item Ham-D score upon completion of week 8 of trial. Partial response is defined as <50% but ≧25% decrease from base line depression on 17 item Ham-D Scale. Recovery is defined as at least 8 weeks free from depression, as diagnosed according to DSM-IV-TR criteria.
This was a comparative, single centre, parallel, open-label randomized study in which half of the study population will receive tramadol and the other half will receive amitriptyline.
The primary endpoint is the treatment response of each study subject, as measured on the Ham-D 17-item scale (Hamilton Mass.). Study entry requires a Ham-D score of ≧15. To achieve remission, a cut-off score of ≦7 will be applied. Response will be defined as a ≧50% drop in score and a partial response will be defined as <50% but ≧25% drop in score. Recovery will be defined as at least 8 weeks free of major depression, as diagnosed according to DSM-IV-TR criteria.
In an open-label study comparing the treatment of Major Depressive Disorder with tramadol and amitriptyline, sixteen patients have been enrolled and five have completed the trial protocol. Of those five, three had received tramadol and two had received amitriptyline. […] A further eight patients are displaying solid therapeutic responses and there have been three drop-outs. Information on therapeutic responses of the first 12 patients is summarised below.

| SMILES | Ham-D change (17-item Ham-D score) | Ham-D change (by penultimate visit) (17-item Ham-D score) | Drop-out because of AE (human, in vivo) | Reduction in patient depression, measured using the Hamilton-D rating scale | Ham-D change (by visit 4 of 7) (17-item Ham-D score, baseline to value by visit 4 of 7, individual MDD patient) |
| --- | --- | --- | --- | --- | --- |
| CN(C)CCC=C1c2ccccc2CCc2ccccc21 [Amitriptyline, amitriptyline] | 22 to 0 | 19 to 4 (by penultimate | Dropped out after Visit 2 | clinically significant reduction in patient depression | – |
| COc1cccc(C2(O)CCCCC2CN(C)C)c1 (centres unmarked) [Tramadol] | 23 to 0 | 26 to 0 (by penultimate and 26 to 4 (by penultimate (2×) | – | clinically significant reduction in patient depression | 18 to 16 (by visit 4 of 7) |
